For one assay, the target named is S1P1 (Homo sapiens, UniProt P21453). The experiment in a line: S1P1 Binding Assay (33P-S1P ligand competition, membranes from CHO cells). On the set-up: expressed in transfected cells; host or cells: CHO cells. The conditions noted are these: membranes of CHO cells expressing human S1P1; 0.03 nM 33P-S1P; 60 min room temperature. The method in brief:
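Membranes from CHO cells expressing human S1P1 (2 μg/well) were incubated with 0.03 nM ^33P-S1P and test compound for 60 min at room temperature. Bound radioactivity was collected on GF/B filters and counted. IC50 is the concentration reducing specific radioligand binding by 50%.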

Assay [1] relates to adjuvant induced arthritis (paw swelling). The experiment in a line: Rat Adjuvant Induced Arthritis Assay (AA). It is filed as in vivo, Lewis rats. The conditions noted are these: for Paw Swelling (mL) on Day 20, Mean: male Lewis rats, vehicle mean 1.53. As for the experimental part: Male Lewis rats (150-175 g; Harlan, n=8 treatment group) were immunized at the base of the tail with […] of 10 mg/ml freshly ground Mycobacterium butyricum (Difco Laboratories) in incomplete Freund's adjuvant (sigma) Animals were dosed once daily with the test article (as a solution or suspension in the vehicle) or vehicle alone (polyethylene glycol 300, “PEG300”) starting from the day of immunization. The volumes of their hind paws were measured in a water displacement plethysmometer (Ugo Basile, Italy). The baseline paw measurements were taken before onset of the disease (between day 7 to day 10). The paw measurements were then taken three times a week until the end of the study on day 20. All procedures involving animals were reviewed and approved by the Institutional Animal Care Use Committee.

SMILES strings stand for the structures.

Chain of S1P1 (P21453 whole entry): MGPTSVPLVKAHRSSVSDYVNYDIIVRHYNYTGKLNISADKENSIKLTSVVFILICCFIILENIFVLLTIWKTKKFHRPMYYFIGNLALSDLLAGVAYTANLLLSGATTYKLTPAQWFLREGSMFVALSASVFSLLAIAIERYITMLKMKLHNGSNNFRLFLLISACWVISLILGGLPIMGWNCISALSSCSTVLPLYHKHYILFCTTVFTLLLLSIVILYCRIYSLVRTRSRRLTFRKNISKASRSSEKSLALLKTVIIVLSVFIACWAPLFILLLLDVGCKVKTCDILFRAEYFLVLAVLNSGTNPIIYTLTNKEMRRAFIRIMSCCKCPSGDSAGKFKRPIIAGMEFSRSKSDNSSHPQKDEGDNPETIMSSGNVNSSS

On to `O=C(O)C1CN(Cc2ccc(-c3noc(-c4onc(-c5ccccc5)c4C(F)(F)F)n3)cc2)C1` [Example 1, 1-(4-(5-(3-Phenyl-4-(trifluoromethyl)isoxazol-5-yl)-1,2,4-oxadiazol-3-yl)benzyl)azetidine-3-carboxylic acid], for which, on S1P1, the half-inhibitory concentration (IC50) came to 0.091 nM. The “disease progression as measured by paw swelling” value in assay [1] (Lewis rat, prophylactic oral dosing) is “inhibits disease progression”. The “Paw Swelling (mL) on Day 20, Mean” value is given as 1.39 mL in assay [1] (0.03 mg/kg once daily from day of immunization), 0.55 mL in assay [1] (0.1 mg/kg once daily from day of immunization), 0.23 mL in assay [1] (0.5 mg/kg once daily from day of immunization) and 0.29 mL in assay [1] (3.0 mg/kg once daily from day of immunization).

Source of the values: patent US8354398B2, “Substituted isoxazole compounds” (Bristol-Myers Squibb Company, priority 2009, dated 2013).
